# In patent publication US20040248801A1, “Methods and reagents for regulation of cellular responses in biological systems” (priority 2000, published 2004):
# Legend:
# [1] = system: bacterial chemoreceptors of E. coli AW405 or RP 1078 (cheW); assay: immunofluorescence microscopy of chemoreceptor organization; assay type: cell-based, Escherichia coli; conditions: E. coli cheW mutants, 5 mM, anti-Tsr labeling
# Procedure: Fluorescence microscopy experiments were performed to visualize changes in chemotaxis receptor organization upon treatment with saccharide-carrying ligands. These experiments can determine directly whether or not multivalent ligands can influence chemoreceptor reorganization. It had been shown that wild-type E. coli localize chemoreceptors to their poles and that inactivation of the structural protein, CheW, results in a random distribution of chemoreceptors on the cell. The ability of ROMP-derived arrays to localize the chemoreceptors was examined using E. coli cheWmutants. Bacteria were treated with 1, 3, or 4, fixed, and labeled with an antibody to the bacterial chemoreceptors (anti-Tsr). […]
# To confirm the ability of multivalent ligands to alter the organization of the chemoreceptors in the bacterial membrane E. coli were treated with compound 8, a galactose-bearing multivalent ligand having a fluorescent label (Scheme 1). When E. coli were treated with 8 or a fluorescein-labeled anti-Tsr antibody 14, the fluorescence patterns observed were similar. […]
# E. coli AW405 or RP 1078 (cheW) were pretreated with buffer alone or with compounds 1, 3, 4, or 8 at 5 mM in a 10 μL total volume of chemotaxis buffer. […] Fluorescence microscopy was performed on a Zeiss Axioscope at 1000×using an oil immersion lens. […]
# [2] = biological target: glucose/galactose-binding protein (GGBP) (Escherichia coli, UniProt P0AEE5); assay: in vitro binding assay with purified GGBP
# Text: The molecular events leading to bacterial chemotaxis have been well studied, and the process has served as a general model for receptor-mediated responses. During chemotaxis in Escherichia coli, chemoattractants, such as sugars and amino acids, and chemorepellents are recognized by specific receptors at the bacterial plasma membrane. For these investigations of multivalent ligand activity, galactose was selected as a model chemoattractant. […] For galactose-mediated signaling, the saccharide must bind to the soluble periplasmic glucose/galactose-binding protein (GGBP), which, in turn, interacts with the galactose-sensing chemoreceptor, Trg. Galactose-GGBP binding to Trg initiates a signaling pathway that results in reversal of the direction of flagellar spin, allowing the bacteria to swim towards the nutrient.
# Galactose-bearing ligands 1-4 of varying defined valencies were generated using ROMP methods (Scheme 1). The galactose residues in the multivalent ligands are tethered to the molecular scaffold (polymer backbone) via a short linker.
# E. coli = E. coli capillary accumulation assay; assay type: cell-based, Escherichia coli
# Procedure: FIGS. 3A and 3B: Results of E. coli capillary accumulation assays. The number of bacteria accumulated is plotted versus the concentration of the attractant (galactose or compounds 1-4, Scheme 1) calculated on a saccharide residue basis. (A): Results are shown for capillaries filled with buffer alone, compound 1, and compound 2 or (B): buffer alone, compound 3 and compound 4 at the indicated concentrations. The vertical line at 1 mM indicates the concentration of maximum chemotaxis for the monomeric compound 1. […] Results are the average of 3 to 6 experiments performed in duplicate and error bars represent a single standard deviation. Partial permeabilization was required to obtain chemotaxis towards 4, and was utilized for all experiments.
# E. coli were subjected to concentration gradients of compounds 1-4 in capillary accumulation assays to determine the concentration at which the maximum chemotactic response is achieved and the number of bacteria that accumulate at this maximum.
# Concentrations of maximum chemotaxis of 3 and 4 are 100- and 5000-fold lower, respectively, than free galactose (FIG. 3B). […]
# E. coli from an overnight culture were grown in LB to OD550 0.4-0.6, washed twice with E. coli chemotaxis buffer, and then partially permeabilized. […] Data was analyzed using the Q and Students tests.
# Sequence of glucose/galactose-binding protein (GGBP) (P0AEE5 24-332 limits assumed): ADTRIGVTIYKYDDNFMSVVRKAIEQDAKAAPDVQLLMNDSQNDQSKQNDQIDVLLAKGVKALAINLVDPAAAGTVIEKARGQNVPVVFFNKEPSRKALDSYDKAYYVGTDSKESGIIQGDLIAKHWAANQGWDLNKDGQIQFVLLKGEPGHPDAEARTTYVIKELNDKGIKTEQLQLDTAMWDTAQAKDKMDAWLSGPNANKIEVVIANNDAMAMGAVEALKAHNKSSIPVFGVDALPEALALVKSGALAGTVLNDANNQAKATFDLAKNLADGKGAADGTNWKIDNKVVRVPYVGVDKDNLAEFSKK
smiles,measurement,setting,value
O=C(NCCOC1OC(CO)C(O)C(O)C1O)C1C[C@@H]2C=CC1C2 (stereo partly shown) [Compound 1],effect on chemoreceptor distribution,[1],no effect on receptor distribution
same,interaction with purified GGBP compared with galactose,[2],at least as favorable as that of galactose
same,chemoattractant activity in mutants,E. coli; ggbp (AW550 and AW543) or trg (AW701) E. coli mutants,not a chemoattractant
same,concentration of maximum chemotaxis,"E. coli; saccharide (galactose) residue basis, partially permeabilized E. coli, 30° C., 60 min",1 mM
